Test results: PMC11511194, “Key Factors for Improving Predictive Accuracy and Avoiding Overparameterization of the PBPK Absorption Model in Food Effect Studies of Weakly Basic Water-Insoluble Compounds in Immediate Release Formulations” (Pharmaceutics, 2024)
Read-outs that look alike come from different tables or passages of the source.

Legend:
[1] = Two-stage biorelevant dissolution (transfer test FaSSGF to FaSSIF); type: physicochemical; details: formulation, gastric to intestinal chamber in vitro
Procedure: Because the solubility of weakly basic water-insoluble compounds is higher in the acidic gastric environment compared to the near-neutral intestinal environment, and that bile salts can enhance the solubility of poorly soluble drugs in the intestine, a two-stage dissolution test was performed to explore the drug transfer process from the stomach to the intestine. The transfer apparatus comprised two USP 2 vessels representing the gastric and intestinal chambers, which are interconnected via a peristaltic pump to simulate first-order gastric emptying dynamics. […] Additional samples in the two-stage dissolution test were analyzed every minute with the same instrument. […]
Precipitation parameters, such as critical supersaturation ratio (CSC) and precipitation rate constant (PRC), were evaluated when precipitation occurs in the neutral intestinal environment after the mixture of solution and undissolved substance is transferred from the gastric chamber in vitro. These parameters were evaluated by fitting the two-stage dissolution profile according to the crystallization kinetics equations [28, 29, 30]. […] The calibrated permeability of drugs, as determined using the Caco-2 Transwell model, was used to represent the permeability of drugs in vivo [31]. […]

[2] = tested on: CYP3A4; experiment: CYP3A4 intrinsic clearance fitted in PBPK model; details: Fitted to clinical PK profiles
Description: S2. PBPK model development and validation physicochemical parameters for these three model drugs, including protein binding and Blood-to-Plasma (B/P) ratio, were obtained from experimental results, while log P and pKa were estimated based on the molecular formula using Gastro Plus ADMET software (version 10.3, […]
S2.1. Rivaroxaban PBPK model development and validation
S2.1.1. Rivaroxaban PBPK model development for metabolism and elimination module Given that the metabolic fractions of CYP3A4 and CYP2J2 to the systemic clearance of rivaroxaban were approximately 18% and 14% [1], respectively, and liver hydrolases contributed to about 14% of its systemic clearance, CLint_CYP3A4, CLint_CYP2J2 and CLHLM were fitted according to the metabolic fraction of rivaroxaban in vivo and concentration-time profiles from the SAD clinical trial in Caucasian subjects under fasted state. Considering that rivaroxaban was a substrate of P-gp transporter, and that about 36% and 7% of the parent drug were directly excreted by the kidney and liver, respectively, rivaroxaban may undergo active efflux through the kidney and liver in vivo [2]. Consequently, permeability-limited kidney and liver models were employed to account for the active efflux mechanism of P-gp for rivaroxaban. These models include both passive diffusion and active transport.
Clearances for passive diffusion in the kidney and liver was calculated using Equation S1 [5] and Equation S2 [6], respectively.
CL௉஽,௜ =2×P௔௣௣ × TSA௜ ሺS1ሻ where CLPD,i is the passive diffusion clearance of the drug in compartment i, Papp is the apparent permeability of the drug, and the TSAi is the regional tubular surface area of compartment i.
Log CL௉஽ =0.82×logD଻.ସ +0.5 ሺS2ሻ where CLPD is the passive diffusional clearance of APIs in the liver, and log D 7.4 is the oil-water partition coefficient at pH 7.4 [6] […]
Blood-to-plasma partition ratio 0.714 Measured
Fraction unbound in plasma 0.065 Measured […]
Caco-2(10-6cm/s) (Rivaroxaban) 8.103 Measured […]

[3] = cited from earlier work
[4] = in vivo, cited from earlier work
[5] = Apparent permeability assay in biorelevant media (PAMPA); type: in vitro ADME; details: for PAMPA: optimized ticagrelor model input; for Papp: PAMPA, parallel artificial membrane
Procedure: In light of observed distinctions in the apparent permeability of drugs in biorelevant media compared to standard media, the apparent permeability of ticagrelor in FaSSIF and FeSSIF media was measured using the published method with the parallel artificial membrane. The apparent permeability of rivaroxaban and PB-201 (Drug-A) in biorelevant media was referenced from the published results.

For `O=C(NC[C@H]1CN(c2ccc(N3CCOCC3=O)cc2)C(=O)O1)c1ccc(Cl)s1` [Rivaroxaban], the “behaviour after transfer from FaSSGF to FaSSIF” value [1] is listed as “continued to dissolve”, the “Intrinsic clearance of CYP 3A4” value [2] is listed as 0.027 µL/min/pmol and the “Fraction unbound in plasma” value ([3]; rivaroxaban, supplement ref 2) is listed as 0.065. For the same molecule, the Blood-to-plasma partition ratio ([3]; rivaroxaban, supplement ref 7) was 0.714, the “metabolic fraction of CYP2J2 to the systemic clearance” value ([4]; supplement ref 1) was “about 14%” and the “metabolic fraction of CYP3A4 to the systemic clearance” value ([4]; supplement ref 1) was “approximately 18%”. The “parent drug directly excreted by the kidney” value ([4]; supplement ref 1) was “about 36%”, the “parent drug directly excreted by the liver” value ([4]; supplement ref 1) was ~7% and the “contribution of liver hydrolases to systemic clearance” value ([4]; supplement ref 2) was “about 14%”.

For `CCCSc1nc(N[C@@H]2C[C@H]2c2ccc(F)c(F)c2)c2nnn([C@@H]3C[C@H](OCCO)[C@@H](O)[C@H]3O)c2n1` [Ticagrelor], the “behaviour after transfer from FaSSGF to FaSSIF” value [1] was “continued to dissolve”, the PAMPA ([5]; Fasted (FaSSIF)) was 90.2 10E-06 cm/s and the PAMPA ([5]; Fed (FeSSIF)) was 14.30 10E-06 cm/s. For the same molecule, the Papp ([5]; FaSSIF) was 90.2 ×10⁻⁶ cm/s, the Papp ([5]; FeSSIF) was 14.3 ×10⁻⁶ cm/s and the “Intrinsic clearance of CYP 3A4” value [2] was 5.00 µL/min/pmol. For the same molecule, the Blood-to-plasma partition ratio ([3]; ticagrelor, supplement ref 18) was 0.592 and the “Fraction unbound in plasma” value ([3]; ticagrelor, supplement ref 18) was 0.006.
